Data taken from ChEMBL document CHEMBL1133700, “Chiral nonsteroidal affinity ligands for the androgen receptor. 1. Bicalutamide analogues bearing electrophilic groups in the B aromatic ring” (J Med Chem, 2000).

molecular target: T1, Androgen receptor (Rattus norvegicus, UniProt P15207); test: Binding Affinity towards Rat Androgen Receptor was determined using [3H]- mibolerone as radioligand.
T1 sequence (P15207 whole entry): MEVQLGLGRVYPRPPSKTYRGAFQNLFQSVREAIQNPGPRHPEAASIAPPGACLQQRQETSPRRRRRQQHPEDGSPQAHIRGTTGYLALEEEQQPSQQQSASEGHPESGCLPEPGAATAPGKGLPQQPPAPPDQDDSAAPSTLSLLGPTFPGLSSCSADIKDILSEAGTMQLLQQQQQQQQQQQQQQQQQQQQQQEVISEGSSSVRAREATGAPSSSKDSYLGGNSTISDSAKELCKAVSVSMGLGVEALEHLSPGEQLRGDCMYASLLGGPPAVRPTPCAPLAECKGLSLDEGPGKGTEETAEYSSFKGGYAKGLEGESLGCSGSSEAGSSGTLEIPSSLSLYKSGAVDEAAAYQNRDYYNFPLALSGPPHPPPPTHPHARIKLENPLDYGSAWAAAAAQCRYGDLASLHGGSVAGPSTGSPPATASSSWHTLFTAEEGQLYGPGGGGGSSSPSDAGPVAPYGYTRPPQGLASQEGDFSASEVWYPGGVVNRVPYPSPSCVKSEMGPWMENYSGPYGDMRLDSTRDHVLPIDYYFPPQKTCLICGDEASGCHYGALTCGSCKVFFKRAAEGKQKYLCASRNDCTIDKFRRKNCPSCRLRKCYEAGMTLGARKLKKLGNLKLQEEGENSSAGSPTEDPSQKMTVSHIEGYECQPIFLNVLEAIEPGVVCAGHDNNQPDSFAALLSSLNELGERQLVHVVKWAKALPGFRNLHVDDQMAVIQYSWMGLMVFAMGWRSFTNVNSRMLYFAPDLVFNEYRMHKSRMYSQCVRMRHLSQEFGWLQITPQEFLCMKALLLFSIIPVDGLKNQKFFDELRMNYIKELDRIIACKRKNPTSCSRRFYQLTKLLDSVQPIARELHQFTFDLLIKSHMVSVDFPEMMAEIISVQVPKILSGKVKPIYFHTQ

| SMILES | Ki |
| --- | --- |
| C[C@](O)(CS(=O)(=O)c1ccc(N=C=S)cc1)C(=O)Nc1ccc(C#N)c(C(F)(F)F)c1 | 41 nM |
| C[C@](O)(CSc1cccc(NC(=O)CCl)c1)C(=O)Nc1ccc(C#N)c(C(F)(F)F)c1 | > 1000 nM |
| C[C@](O)(CS(=O)(=O)c1cccc(NC(=O)CCl)c1)C(=O)Nc1ccc(C#N)c(C(F)(F)F)c1 | 130 nM |
| C[C@](O)(CSc1cccc(NC(=O)CBr)c1)C(=O)Nc1ccc(C#N)c(C(F)(F)F)c1 | > 1000 nM |
